How the values were obtained:
wild oat = assay: Test B pre/postemergence wild oat; assay type: in vivo, Avena fatua
Outline: (§1)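 Test chemicals in a non-phytotoxic solvent mixture with surfactant were sprayed preemergence onto planted seeds and postemergence onto plants 2 to 18 cm tall (1- to 4-leaf stage). After twelve to sixteen days in a greenhouse, injury was visually rated against untreated controls from 0 (no effect) to 10 (complete control).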

wheat = assay: Test B pre/postemergence wheat; assay type: in vivo, Triticum aestivum
Outline: as §1

bedstraw = assay: Test B pre/postemergence bedstraw; assay type: in vivo, Galium aparine
Outline: as §1

morningglory = assay: Test B pre/postemergence morningglory; assay type: in vivo, Ipomoea hederacea
Outline: as §1

velvetleaf = assay: Test B pre/postemergence velvetleaf; assay type: in vivo, Abutilon theophrasti
Outline: as §1

corn = assay: Test B pre/postemergence corn; assay type: in vivo, Zea mays
Outline: as §1

purple nutsedge = assay: Test B pre/postemergence purple nutsedge; assay type: in vivo, Cyperus rotundus
Outline: as §1

blackgrass = assay: Test B pre/postemergence blackgrass; assay type: in vivo, Alopecurus myosuroides
Outline: as §1

duck salad = assay: Test B flood test duck salad; assay type: in vivo, Heteranthera limosa
Outline: (§2)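 Plants were grown to the 2-leaf stage before treatment with test chemical, then held in a greenhouse for twelve to sixteen days. Injury was visually rated against untreated controls on a 0–10 scale, where 0 is no effect and 10 is complete control.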

cocklebur = assay: Test B pre/postemergence cocklebur; assay type: in vivo, Xanthium strumarium
Outline: as §1

smallflower flatsedge = assay: Test B flood test smallflower flatsedge; assay type: in vivo, Cyperus difformis
Outline: as §2

surinam grass = assay: Test B pre/postemergence surinam grass; assay type: in vivo, Brachiaria decumbens
Outline: as §1

sugar beet = assay: Test B pre/postemergence sugar beet; assay type: in vivo, Beta vulgaris
Outline: as §1

pigweed = assay: Test B pre/postemergence pigweed; assay type: in vivo, Amaranthus retroflexus
Outline: as §1

rape = assay: Test B pre/postemergence rape; assay type: in vivo, Brassica napus
Outline: as §1

crabgrass = assay: Test B pre/postemergence crabgrass; assay type: in vivo, Digitaria sanguinalis
Outline: as §1

[1] = Preemergence, Rate 62 g/ha, scale of 0 to 10 where 0 is no effect and 10 is complete control
[2] = Preemergence, Rate 250 g/ha, scale of 0 to 10 where 0 is no effect and 10 is complete control
[3] = Preemergence, Rate 500 g/ha, scale of 0 to 10 where 0 is no effect and 10 is complete control
[4] = Rate 62 g/ha, Postemergence, scale 0 to 10, 0 no effect, 10 complete control
[5] = Rate 125 g/ha, Postemergence, scale of 0 to 10 where 0 is no effect and 10 is complete control
[6] = Rate 250 g/ha, Postemergence, scale of 0 to 10 where 0 is no effect and 10 is complete control
[7] = Rate 125 g/ha, Preemergence, scale of 0 to 10 where 0 is no effect and 10 is complete control
[8] = Rate 500 g/ha, Postemergence, scale 0 to 10, 0 no effect, 10 complete control
[9] = Rate 62 g/ha, headed Pre-emergence (flood test species), scale 0 to 10 (0 no effect, 10 complete control)
[10] = Rate 125 g/ha, Pre-emergence, flood test species, scale 0 to 10 where 0 is no effect and 10 is complete control
[11] = Rate 250 g/ha, Pre-emergence, flood-test species, scale 0 to 10, 0 is no effect, 10 is complete control
[12] = Rate 500 g/ha, Pre-emergence, flood test species, scale 0 to 10 (0 no effect, 10 complete control)

For CCC=CCn1c(=O)on(C(=O)N(c2ccc(F)cc2)C(C)C)c1=O [Compound 286], the “Wild oats plant response rating” value (wild oat; [1]) was 0, the “Wild oats plant response rating” value (wild oat; [2]) was 4 and the “Plant response rating, Wild oats” value (wild oat; [3]) was 6. For the same compound, the “Wild oats plant response rating” value (wild oat; [4]) was 0, the “Wild oats plant response rating” value (wild oat; [5]) was 0 and the “Plant response rating, Wild oats” value (wild oat; [6]) was 2. For the same compound, the “Wheat plant response rating” value (wheat; [1]) was 0, the “Wheat plant response rating” value (wheat; [2]) was 0 and the “Plant response rating, Wheat” value (wheat; [3]) was 2. For the same compound, the “Wheat plant response rating” value (wheat; [4]) was 0, the “Wheat plant response rating” value (wheat; [5]) was 3 and the “Wheat plant response rating” value (wheat; [7]) was 0. The “Plant response rating, Wheat” value (wheat; [6]) was 3, the “Bedstraw plant response rating” value (bedstraw; [1]) was 0 and the “Bedstraw plant response rating” value (bedstraw; [2]) was 0. The “Plant response rating, Bedstraw” value (bedstraw; [3]) was 0, the “Bedstraw plant response rating” value (bedstraw; [4]) was 2 and the “Bedstraw plant response rating” value (bedstraw; [5]) was 2. The “Bedstraw plant response rating” value (bedstraw; [7]) was 0, the “Plant response rating, Bedstraw” value (bedstraw; [6]) was 5 and the “Bedstraw plant response rating” value (bedstraw; [8]) was 6. For the same compound, the “Morningglory plant response rating” value (morningglory; [1]) was 0, the “Morningglory plant response rating” value (morningglory; [2]) was 0 and the “Plant response rating, Morningglory” value (morningglory; [3]) was 0. The “Morningglory plant response rating” value (morningglory; [4]) was 1, the “Morningglory plant response rating” value (morningglory; [5]) was 3 and the “Morningglory plant response rating” value (morningglory; [7]) was 0. For the same compound, the “Plant response rating, Morningglory” value (morningglory; [6]) was 8, the “Velvetleaf plant response rating” value (velvetleaf; [1]) was 0 and the “Velvetleaf plant response rating” value (velvetleaf; [2]) was 3. For the same compound, the “Plant response rating, Velvetleaf” value (velvetleaf; [3]) was 5, the “Velvetleaf plant response rating” value (velvetleaf; [4]) was 0 and the “Velvetleaf plant response rating” value (velvetleaf; [5]) was 0. The “Velvetleaf plant response rating” value (velvetleaf; [7]) was 0, the “Plant response rating, Velvetleaf” value (velvetleaf; [6]) was 0 and the “Corn plant response rating” value (corn; [1]) was 0. For the same compound, the “Corn plant response rating” value (corn; [2]) was 0, the “Plant response rating, Corn” value (corn; [3]) was 0 and the “Corn plant response rating” value (corn; [4]) was 0. The “Corn plant response rating” value (corn; [5]) was 0, the “Corn plant response rating” value (corn; [7]) was 0 and the “Plant response rating, Corn” value (corn; [6]) was 0. For the same compound, the “Corn plant response rating” value (corn; [8]) was 0, the “Nutsedge plant response rating” value (purple nutsedge; [1]) was 0 and the “Nutsedge plant response rating” value (purple nutsedge; [2]) was 0. For the same compound, the “Nutsedge plant response rating” value (purple nutsedge; [4]) was 0, the “Nutsedge plant response rating” value (purple nutsedge; [5]) was 0 and the “Nutsedge plant response rating” value (purple nutsedge; [7]) was 0. The “Plant response rating, Nutsedge” value (purple nutsedge; [6]) was 0, the “Blackgrass plant response rating” value (blackgrass; [1]) was 0 and the “Blackgrass plant response rating” value (blackgrass; [2]) was 7. For the same compound, the “Plant response rating, Blackgrass” value (blackgrass; [3]) was 7, the “Blackgrass plant response rating” value (blackgrass; [4]) was 0 and the “Blackgrass plant response rating” value (blackgrass; [5]) was 2. For the same compound, the “Blackgrass plant response rating” value (blackgrass; [7]) was 0, the “Plant response rating, Blackgrass” value (blackgrass; [6]) was 5 and the “Blackgrass plant response rating” value (blackgrass; [8]) was 8. The “Ducksalad plant response rating” value (duck salad; [9]) was 0, the “Ducksalad plant response rating” value (duck salad; [10]) was 0 and the “Ducksalad plant response rating” value (duck salad; [11]) was 0. The “Ducksalad plant response rating” value (duck salad; [12]) was 0, the “Cocklebur plant response rating” value (cocklebur; [1]) was 0 and the “Cocklebur plant response rating” value (cocklebur; [2]) was 0. The “Plant response rating, Cocklebur” value (cocklebur; [3]) was 0, the “Cocklebur plant response rating” value (cocklebur; [4]) was 0 and the “Cocklebur plant response rating” value (cocklebur; [5]) was 0. For the same compound, the “Cocklebur plant response rating” value (cocklebur; [7]) was 0, the “Plant response rating, Cocklebur” value (cocklebur; [6]) was 0 and the “Cocklebur plant response rating” value (cocklebur; [8]) was 0. For the same compound, the “S. Flatsedge plant response rating” value (smallflower flatsedge; [9]) was 0, the “S. Flatsedge plant response rating” value (smallflower flatsedge; [10]) was 0 and the “S. Flatsedge plant response rating” value (smallflower flatsedge; [11]) was 0. For the same compound, the “S. Flatsedge plant response rating” value (smallflower flatsedge; [12]) was 0, the “B. signalgrass plant response rating” value (surinam grass; [1]) was 0 and the “B. signalgrass plant response rating” value (surinam grass; [2]) was 8. For the same compound, the “Plant response rating, B. signalgrass” value (surinam grass; [3]) was 8, the “B. signalgrass plant response rating” value (surinam grass; [4]) was 0 and the “B. signalgrass plant response rating” value (surinam grass; [5]) was 0. The “B. signalgrass plant response rating” value (surinam grass; [7]) was 3, the “Plant response rating, B. signalgrass” value (surinam grass; [6]) was 0 and the “B. signalgrass plant response rating” value (surinam grass; [8]) was 2. The “Sugarbeets plant response rating” value (sugar beet; [1]) was 0, the “Sugarbeets plant response rating” value (sugar beet; [2]) was 0 and the “Plant response rating, Sugarbeets” value (sugar beet; [3]) was 4. For the same compound, the “Sugarbeets plant response rating” value (sugar beet; [4]) was 0, the “Sugarbeets plant response rating” value (sugar beet; [5]) was 2 and the “Sugarbeets plant response rating” value (sugar beet; [7]) was 0. For the same compound, the “Plant response rating, Sugarbeets” value (sugar beet; [6]) was 2, the “Redroot pigweed plant response rating” value (pigweed; [1]) was 0 and the “Redroot pigweed plant response rating” value (pigweed; [2]) was 2. The “Plant response rating, Redroot pigweed” value (pigweed; [3]) was 10, the “Redroot pigweed plant response rating” value (pigweed; [4]) was 0 and the “Redroot pigweed plant response rating” value (pigweed; [5]) was 3. For the same compound, the “Redroot pigweed plant response rating” value (pigweed; [7]) was 0, the “Plant response rating, Redroot pigweed” value (pigweed; [6]) was 6 and the “Rape plant response rating” value (rape; [1]) was 0. For the same compound, the “Rape plant response rating” value (rape; [2]) was 3, the “Plant response rating, Rape” value (rape; [3]) was 7 and the “Rape plant response rating” value (rape; [4]) was 0. The “Rape plant response rating” value (rape; [5]) was 2, the “Rape plant response rating” value (rape; [7]) was 0 and the “Plant response rating, Rape” value (rape; [6]) was 5. For the same compound, the “Crabgrass plant response rating” value (crabgrass; [1]) was 0, the “Crabgrass plant response rating” value (crabgrass; [2]) was 10 and the “Plant response rating, Crabgrass” value (crabgrass; [3]) was 10. The “Crabgrass plant response rating” value (crabgrass; [4]) was 0, the “Crabgrass plant response rating” value (crabgrass; [5]) was 0 and the “Crabgrass plant response rating” value (crabgrass; [7]) was 2. For the same compound, the “Plant response rating, Crabgrass” value (crabgrass; [6]) was 2.

Source: US6737383B1, “Herbicidal oxadiazolidines” (priority 1999, dated 2004)
